Experimental data reported in patent US20200247812A1 (Integral Biosciences Private Limited, priority 2018, published 2020).

Target: T1, ALK 5 (Homo sapiens, UniProt P36897)
T1 sequence (P36897 34-503): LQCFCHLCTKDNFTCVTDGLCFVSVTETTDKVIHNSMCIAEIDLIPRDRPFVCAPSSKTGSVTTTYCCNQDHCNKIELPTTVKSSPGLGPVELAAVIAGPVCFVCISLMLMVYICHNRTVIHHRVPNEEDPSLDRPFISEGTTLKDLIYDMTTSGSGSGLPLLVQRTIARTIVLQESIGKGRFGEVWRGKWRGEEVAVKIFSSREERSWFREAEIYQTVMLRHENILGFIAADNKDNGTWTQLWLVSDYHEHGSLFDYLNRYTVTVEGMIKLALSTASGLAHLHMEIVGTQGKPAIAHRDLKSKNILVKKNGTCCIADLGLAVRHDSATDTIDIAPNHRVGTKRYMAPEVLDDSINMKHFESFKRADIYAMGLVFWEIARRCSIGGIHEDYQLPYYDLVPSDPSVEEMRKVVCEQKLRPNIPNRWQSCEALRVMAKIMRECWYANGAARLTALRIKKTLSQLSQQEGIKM
Experiment: In vitro kinase assay (ALK5 IC50, LanthaScreen Terbium labeled TR-FRET)
Format: biochemical
Conditions: TGF-β kinase 6 nM, ATP 10 μM, read-out: Enzyme Activity ALK 5 IC50
Description: Compounds of the invention were screened in an in vitro kinase assay against ALK 5, a members of the TGF-β family of Ser/Thr kinases. Standard kinase testing conditions and techniques were employed. IC50 values of compounds against TGF-ß kinase was determined by LanthaScreen™ Terbium Labeled TR-FRET assay. Kinase assays were performed in 1X kinase buffer (# PV6135, Invitrogen, Life Technologies Grand Island, N.Y.) where total reaction volume was 10 μL in low-volume 384-well plates (#4511, Corning). Serially diluted compounds (3-fold) were incubated with TGF-β kinase (6 nM) for 10 min, following which a mixture of ATP (10 μM) (# A1852, Sigma, St-Louis, Mo.) and fluorescent-PolyGT substrate (200 nM); Cat # PV3610, Invitrogen, Life Technologies Grand Island, N.Y.) was added and incubated in dark at room temperature for 1 h. After 1 h, 10 μL stop solution containing Terbium labeled antibody (4 nM; Cat # PV3529, Invitrogen, Life Technologies Grand Island, N.Y.) and EDTA (# E5134, Sigma, St-Louis, Mo.; 20 mM) in TR-FRET dilution buffer (Cat # PV3574, Invitrogen, Life Technologies Grand Island, N.Y.) was added. Readings were taken in a Synergy Neo Plate reader (BioTek, Winooski) at single excitation of 340 nm and Dual emission at 495 nm and 520 nm respectively.
The % activity of test samples was calculated as (Sample-Min)×100/(Max −Min). [Max: DMSO control, complete reaction with enzyme with DMSO and Min: No enzyme with DMSO]. Percent inhibition (100-% activity) was fitted to the “four-parameter logistic model” in XLfit for determination of IC50 values.

IC50 [nM]	Structure (SMILES)
≤ 500	CNC(=O)c1cnccc1Nc1cc(-c2cc(Cl)ccc2F)c(=O)[nH]c1SC [Compound 1.39, 4-((5-(5-chloro-2-fluorophenyl)-2-(methylthio)-6-oxo-1,6-dihydropyridin-3-yl)amino)-N-methylnicotinamide]
≤ 500	O=c1[nH]c(C2CC2)c(Nc2ccnc3ccncc23)cc1-c1cc(Cl)ccc1F [Compound 1.67, 5-((1,6-naphthyridin-4-yl)amino)-3-(5-chloro-2-fluorophenyl)-6-cyclopropylpyridin-2(1H)-one]
500 to 2000	CNC(=O)c1cnccc1Nc1cc(-c2cc(Cl)ccc2F)c(=O)[nH]c1N(C)C [Compound 1.38, 4-((5-(5-chloro-2-fluorophenyl)-2-(dimethylamino)-6-oxo-1,6-dihydropyridin-3-yl)amino)-N-methylnicotinamide]
≤ 500	COc1[nH]c(=O)c(-c2cc(Cl)ccc2F)cc1Nc1ccnc(NC(C)=O)c1 [Compound 1.75, N-(4-((5-(5-chloro-2-fluorophenyl)-2-methoxy-6-oxo-1,6-dihydropyridin-3-yl)amino)pyridin-2-yl)acetamide]
≤ 500	CSc1[nH]c(=O)c(-c2cc(Cl)ccc2F)cc1Nc1ccnc2ccncc12 [Compound 1.36, 5-((1,6-naphthyridin-4-yl)amino)-3-(5-chloro-2-fluorophenyl)-6-(methylthio)pyridin-2(1H)-one]
> 5000	CN(C)c1[nH]c(=O)c(-c2cc(Cl)ccc2F)cc1Nc1ccnc2c1ccn2C [Compound 1.28, 3-(5-chloro-2-fluorophenyl)-6-(dimethylamino)-5-((1-methyl-1H-pyrrolo[2,3-b]pyridin-4-yl)amino)pyridin-2(1H)-one]
2000 to 5000	CN(C)c1[nH]c(=O)c(-c2cc(Cl)ccc2F)cc1Nc1ccnc2cc(C(F)(F)F)ccc12 [Compound 1.33, 3-(5-chloro-2-fluorophenyl)-6-(dimethylamino)-5-((7-(trifluoromethyl)quinolin-4-yl)amino)pyridin-2(1H)-one]
> 5000	CN(C)c1[nH]c(=O)c(-c2cc(Cl)ccc2F)cc1Nc1ccncc1C(=O)NC(CO)CO [Compound 1.11]
≤ 500	CCc1[nH]c(=O)c(-c2cc(Cl)ccc2F)cc1Nc1ccnc2ccncc12 [Compound 1.71, 5-((1,6-naphthyridin-4-yl)amino)-3-(5-chloro-2-fluorophenyl)-6-ethylpyridin-2(1H)-one]
> 5000	CN(C)c1[nH]c(=O)c(-c2cc(Cl)ccc2F)cc1Nc1ccncc1C(=O)NC(C)(C)CO [Compound 1.31, 4-((5-(5-chloro-2-fluorophenyl)-2-(dimethylamino)-6-hydroxypyridin-3-yl)amino)-N-(1-hydroxy-2-methylpropan-2-yl)nicotinamide]
> 5000	CN(C)c1[nH]c(=O)c(-c2cc(Cl)ccc2F)cc1Nc1ccncc1 [Compound 1.14, 3-(5-chloro-2-fluorophenyl)-6-(dimethylamino)-5-(pyridin-4-ylamino)pyridin-2(1H)-one]

Further lines, the compound ahead of its results:

Structure (SMILES)	IC50 [nM]
CC(=O)Nc1cc(N(C)c2cc(-c3cc(Cl)ccc3F)c(=O)[nH]c2C(C)C)ccn1 [Compound 1.66, N-(4-((5-(5-chloro-2-fluorophenyl)-2-isopropyl-6-oxo-1,6-dihydropyridin-3-yl)(methyl)amino)pyridin-2-yl)acetamide]	500 to 2000
CC(C)c1[nH]c(=O)c(-c2ccccc2F)cc1Nc1ccncc1C(=O)NC[C@H](C)O [Compound 1.3, (S)-4-((5-(2-fluorophenyl)-2-isopropyl-6-oxo-1,6-dihydropyridin-3-yl)amino)-N-(2-hydroxypropyl)nicotinamide]	2000 to 5000
C[C@@H](CO)NC(=O)c1cnccc1Nc1cc(-c2cc(Cl)ccc2F)c(=O)n(C)c1 [Compound 1.8, (S)-4-((5-(5-chloro-2-fluorophenyl)-1-methyl-6-oxo-1,6-dihydropyridin-3-yl)amino)-N-(1-hydroxypropan-2-yl)nicotinamide]	> 5000
CCc1[nH]c(=O)c(-c2ccc(F)c(Cl)c2)cc1Nc1ccnc2[nH]ccc12 [Compound 1.90, 5-((1H-pyrrolo[2,3-b]pyridin-4-yl)amino)-3-(3-chloro-4-fluorophenyl)-6-ethylpyridin-2(1H)-one]	≤ 500
CC(C)c1[nH]c(=O)c(-c2ccc(F)c(Cl)c2)cc1Nc1ccnc2[nH]ncc12 [Compound 1.84, 5-((1H-pyrazolo[3,4-b]pyridin-4-yl)amino)-3-(3-chloro-4-fluorophenyl)-6-isopropylpyridin-2(1H)-one]	≤ 500
CCc1[nH]c(=O)c(-c2ccc(F)c(Cl)c2)cc1Nc1ccnc2ccncc12 [Compound 1.87, 5-((1,6-naphthyridin-4-yl)amino)-3-(3-chloro-4-fluorophenyl)-6-ethylpyridin-2(1H)-one]	≤ 500
CC(=O)Nc1cc(Nc2cc(-c3ccc(F)c(Cl)c3)c(=O)[nH]c2C(C)C)ccn1 [Compound 1.58, N-(4-((5-(3-chloro-4-fluorophenyl)-2-isopropyl-6-oxo-1,6-dihydropyridin-3-yl)amino)pyridin-2-yl)acetamide]	≤ 500
C[C@@H](CO)NC(=O)c1cnccc1Nc1cc(-c2cc(Cl)ccc2F)c(=O)n(C)c1N(C)C [Compound 1.17, (S)-4-((5-(5-chloro-2-fluorophenyl)-2-(dimethylamino)-1-methyl-6-oxo-1,6-dihydropyridin-3-yl)amino)-N-(1-hydroxypropan-2-yl)nicotinamide]	2000 to 5000
C[C@@H](CO)NC(=O)c1cnccc1Nc1cc(-c2cc(Cl)ccc2F)c(=O)n2c1N(C)CC2 [Compound 1.22, (S)-4-((6-(5-chloro-2-fluorophenyl)-1-methyl-5-oxo-1,2,3,5-tetrahydroimidazo[1,2-a]pyridin-8-yl)amino)-N-(1-hydroxypropan-2-yl)nicotinamide]	2000 to 5000
Cc1cccc(-c2cc(Nc3ccnc4[nH]ccc34)c(N(C)C)[nH]c2=O)n1 [Compound 1.13, 5′-((1H-pyrrolo[2,3-b]pyridin-4-yl)amino)-6′-(dimethylamino)-6-methyl-[2,3′-bipyridin]-2′(1′H)-one]	2000 to 5000
CC(C)c1[nH]c(=O)c(-c2cc(Cl)ccc2F)cc1Nc1ncnc2c1CC(=O)N2 [Compound 1.78, 4-((5-(5-chloro-2-fluorophenyl)-2-isopropyl-6-oxo-1,6-dihydropyridin-3-yl)amino)-5,7-dihydro-6H-pyrrolo[2,3-d]pyrimidin-6-one]	≤ 500
CC(C)c1[nH]c(=O)c(-c2cc(Cl)ccc2F)cc1Nc1ccnc2c1CCC(=O)N2 [Compound 1.62, 5-((5-(5-chloro-2-fluorophenyl)-2-isopropyl-6-oxo-1,6-dihydropyridin-3-yl)amino)-3,4-dihydro-1,8-naphthyridin-2(1H)-one]	> 5000
CCc1[nH]c(=O)c(-c2ccc(F)c(Cl)c2)cc1Nc1ccnc(NC(C)=O)c1 [Compound 1.88, N-(4-((5-(3-chloro-4-fluorophenyl)-2-ethyl-6-oxo-1,6-dihydropyridin-3-yl)amino)pyridin-2-yl)acetamide]	≤ 500
CC(=O)Nc1cc(Nc2cc(-c3cc(Cl)c(C)cc3F)c(=O)[nH]c2C(C)C)ccn1 [Compound 1.64, N-(4-((5-(5-chloro-2-fluoro-4-methylphenyl)-2-isopropyl-6-oxo-1,6-dihydropyridin-3-yl)amino)pyridin-2-yl)acetamide]	> 5000
CC(C)c1[nH]c(=O)c(-c2cc(Cl)ccc2F)cc1Nc1ccncc1C(=O)N[C@@H](C)CO [Compound 1.6]	500 to 2000
